Source: BindingDB's records for PubMed 8930187 (Leiden University, 1996)

Target: Gamma-aminobutyric acid receptor subunit alpha-1 (Rattus norvegicus, UniProt P62813)
Sequence (P62813 whole entry): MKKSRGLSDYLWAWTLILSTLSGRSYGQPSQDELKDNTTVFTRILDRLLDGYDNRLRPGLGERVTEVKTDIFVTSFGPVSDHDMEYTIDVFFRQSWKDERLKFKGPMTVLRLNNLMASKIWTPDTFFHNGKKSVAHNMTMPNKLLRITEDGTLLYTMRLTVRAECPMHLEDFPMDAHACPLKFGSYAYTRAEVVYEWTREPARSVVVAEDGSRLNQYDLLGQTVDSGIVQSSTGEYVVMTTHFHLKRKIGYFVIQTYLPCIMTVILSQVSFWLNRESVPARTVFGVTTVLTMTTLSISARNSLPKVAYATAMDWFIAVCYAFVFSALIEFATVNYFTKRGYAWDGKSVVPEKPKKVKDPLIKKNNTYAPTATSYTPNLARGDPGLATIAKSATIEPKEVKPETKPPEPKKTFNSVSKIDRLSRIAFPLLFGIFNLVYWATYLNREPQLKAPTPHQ

SMILES | Ki
O=C1CN=C(c2ccccc2Cl)c2cc([N+](=O)[O-])ccc2N1 [5-(2-chlorophenyl)-7-nitro-1,3-dihydro-2H-1,4-benzodiazepin-2-one] | 0.027 µM
Cc1ncc2n1-c1ccc(Cl)cc1C(c1ccccc1F)=NC2 [12-chloro-9-(2-fluorophenyl)-3-methyl-2,4,8-triazatricyclo[8.4.0.0^{2,6}]tetradeca-1(10),3,5,8,11,13-hexaene] | 0.026 µM
O=C1Nc2ccc(Cl)cc2C(c2ccccc2)=NC1O (centres undefined) [CAS_604-75-1] | 0.35 µM
CN1C(=O)CN=C(c2ccccc2F)c2cc([N+](=O)[O-])ccc21 [Flunitrazepam] | 0.029 µM
